Measured values from article PMC11022729 (Advanced Science, 2024).

Experiments:
histamine H1 receptor = histamine H1 receptor (Homo sapiens, UniProt P35367); test: [3H]-pyrilamine competition binding assay; design: expressed in transfected cells; host or cells: CHO
Description: For membrane preparations of CHO cells stably expressing the human histamine H1 receptor (H1R), cells were washed and harvested with PBS buffer, homogenized by sonication (3 × 15 s) in ice‐cold HEPES‐H1R binding buffer (20 mM HEPES, 10 mM MgCl2, and 100 mM NaCl), followed by a centrifugation step (20 000 × g, 30 min, 4 °C). The resulting cell pellet was resuspended in binding buffer and homogenized using a hand potter. Membrane extracts were stored at −80 °C. Prior to use, the membranes were handled as described for D2R/D3R. […] Assays were performed at least in duplicates with appropriate concentrations between 0.1 nM and 100 µM of the test compound. […] The subsequent procedure was performed as described for D2R/D3R.

mice [1] = test: DNFB model of allergic contact dermatitis (persistent itch); format: in vivo, mouse; details: i.p. after the second DNFB exposure, vs vehicle
Description: We next assessed the efficacy of compound 6 in the treatment of chronic itching. […] These findings are important because they indicate that Slack activators can reduce existing itching.
To induce persistent itch, a model of allergic contact dermatitis^[ [32] ^] was used. The fur on the dorsolateral aspect of the neck was shaved under brief isoflurane anesthesia. Three to four days later, the shaved skin area was exposed to 100 µL of 0.15% 2,4‐dinitrofluorobenzene (DNFB) in acetone/olive oil (3:1). After 10–11 days, the skin was shaved again, and the DNFB solution was applied 3–4 days later (i.e., two painting sessions 14 days apart). Ninety minutes after the second DNFB application, the mice were habituated to a plexiglass cylinder (30 cm diameter) for 15 min. Compound 6 hydrochloride or vehicle was administered i.p., and 15 min later, spontaneous scratching was recorded over 30 min by videotaping.

[2] = system: voltage-dependent Na+ channels in IB4-binding sensory neurons; test: Tetrodotoxin-resistant Na+ currents in DRG neurons (patch-clamp); format: cell-based, mouse; details: 50 µM
mice [3] = test: Von Frey filament test; format: in vivo; details: 10 mg kg−1 i.p., hindpaws, vs vehicle
mice [4] = test: Histamine-induced itch behavior; format: in vivo, mouse; details: i.p.
Text: Chloroquine‐induced scratching in mice is driven by MrgprA3 activation in the NP2 population of sensory neurons.^[ [10], [29] ^] To further explore the antipruritic efficacy of compound 6 in histamine‐independent itch, we assessed the behavioral response after s.c. injection of the peptide Ser‐Leu‐Ile‐Gly‐Arg‐Leu (SLIGRL) that evokes scratching by activation of MrgprC11,^[ [30] ^] which is expressed in the NP2 and NP3 population.^[ [10] ^] […] Moreover, compound 6 ameliorated histamine‐independent itch evoked by s.c. injection of β‐alanine that activates MrgprD^[ [31] ^] in the NP1 population of sensory neurons^[ [10] ^] (Figure 3F). In contrast, scratching induced by subcutaneous histamine was not affected by compound 6 (Figure 3G). The lack of an effect on histamine‐evoked scratching was supported by the low affinity of compound 6 for histamine H1 receptors, which was determined using a [^3H]‐pyrilamine competition binding assay in vitro (Table S3, Supporting Information). […] We also investigated the efficacy of compound 6 after peroral (p.o.) delivery.
Three to four days before the day of the experiment, the fur on the dorsolateral aspect of the neck was shaved under brief isoflurane anesthesia. […] Number of scratching bouts directed toward the nape of the neck was assessed over 30 min by videotaping. […]

IB4-binding DRG neurons = test: Whole-cell current-clamp recordings on sensitized DRG neurons; format: cell-based, mouse; details: 50 µM
histamine H2 receptor = histamine H2 receptor (Homo sapiens, UniProt P25021); test: SafetyScreen44 panel; details: read-out: binding inhibition
histamine H2 receptor, sequence (P25021 whole entry): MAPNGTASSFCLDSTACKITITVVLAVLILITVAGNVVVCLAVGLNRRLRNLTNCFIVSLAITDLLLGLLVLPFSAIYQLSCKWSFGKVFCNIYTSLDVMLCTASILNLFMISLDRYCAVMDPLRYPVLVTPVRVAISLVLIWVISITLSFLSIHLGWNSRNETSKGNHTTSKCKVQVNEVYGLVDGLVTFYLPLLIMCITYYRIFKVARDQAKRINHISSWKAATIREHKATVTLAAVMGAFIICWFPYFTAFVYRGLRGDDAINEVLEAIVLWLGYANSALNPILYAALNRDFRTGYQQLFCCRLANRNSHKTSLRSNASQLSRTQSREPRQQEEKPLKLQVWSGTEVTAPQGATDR
Description: (§1) Measurements were performed in duplicate.
(§2) channel, which were obtainedfrom ratspecimens).
(§3) in brackets) specific for each target.

muscarinic M2 receptor = muscarinic M2 receptor (Homo sapiens, UniProt P08172); test: SafetyScreen44 panel; details: read-out: binding inhibition
muscarinic M2 receptor, sequence (P08172 whole entry): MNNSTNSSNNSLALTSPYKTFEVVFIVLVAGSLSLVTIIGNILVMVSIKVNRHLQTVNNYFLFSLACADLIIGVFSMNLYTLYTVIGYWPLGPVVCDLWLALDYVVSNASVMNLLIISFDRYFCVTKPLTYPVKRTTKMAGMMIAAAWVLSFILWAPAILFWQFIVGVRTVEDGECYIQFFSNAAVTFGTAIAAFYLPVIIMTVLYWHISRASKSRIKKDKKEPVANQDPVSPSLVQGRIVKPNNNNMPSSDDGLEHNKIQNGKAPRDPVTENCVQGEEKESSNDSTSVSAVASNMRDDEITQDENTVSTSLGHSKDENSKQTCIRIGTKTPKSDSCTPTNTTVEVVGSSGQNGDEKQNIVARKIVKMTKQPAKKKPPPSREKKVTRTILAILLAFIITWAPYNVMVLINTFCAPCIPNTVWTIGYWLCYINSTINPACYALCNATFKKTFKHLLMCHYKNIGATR
Description: as §1, §2, §3

[5] = target: T1, serotonin 5-HT1B receptor (Homo sapiens, UniProt P28222); test: SafetyScreen44 panel; details: read-out: binding inhibition
T1 construct: purchased Eurofins Cerep P270
T1 sequence (P28222 whole entry): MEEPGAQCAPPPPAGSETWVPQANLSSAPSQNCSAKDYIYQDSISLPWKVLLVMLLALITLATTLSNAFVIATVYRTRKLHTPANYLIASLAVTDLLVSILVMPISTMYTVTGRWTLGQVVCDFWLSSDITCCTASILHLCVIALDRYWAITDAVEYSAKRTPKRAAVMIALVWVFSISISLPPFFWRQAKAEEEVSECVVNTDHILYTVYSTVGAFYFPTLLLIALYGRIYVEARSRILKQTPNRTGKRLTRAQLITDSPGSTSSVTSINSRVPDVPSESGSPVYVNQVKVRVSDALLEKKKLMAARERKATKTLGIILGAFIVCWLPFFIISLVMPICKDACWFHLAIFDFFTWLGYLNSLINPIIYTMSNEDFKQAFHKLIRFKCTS
Description: as §1, §2, §3

[6] = target: human ether-à-go-go (hERG) potassium channel (Homo sapiens, UniProt Q12809); test: SafetyScreen44 panel; details: 10 µM
human ether-à-go-go (hERG) potassium channel, sequence (Q12809 whole entry): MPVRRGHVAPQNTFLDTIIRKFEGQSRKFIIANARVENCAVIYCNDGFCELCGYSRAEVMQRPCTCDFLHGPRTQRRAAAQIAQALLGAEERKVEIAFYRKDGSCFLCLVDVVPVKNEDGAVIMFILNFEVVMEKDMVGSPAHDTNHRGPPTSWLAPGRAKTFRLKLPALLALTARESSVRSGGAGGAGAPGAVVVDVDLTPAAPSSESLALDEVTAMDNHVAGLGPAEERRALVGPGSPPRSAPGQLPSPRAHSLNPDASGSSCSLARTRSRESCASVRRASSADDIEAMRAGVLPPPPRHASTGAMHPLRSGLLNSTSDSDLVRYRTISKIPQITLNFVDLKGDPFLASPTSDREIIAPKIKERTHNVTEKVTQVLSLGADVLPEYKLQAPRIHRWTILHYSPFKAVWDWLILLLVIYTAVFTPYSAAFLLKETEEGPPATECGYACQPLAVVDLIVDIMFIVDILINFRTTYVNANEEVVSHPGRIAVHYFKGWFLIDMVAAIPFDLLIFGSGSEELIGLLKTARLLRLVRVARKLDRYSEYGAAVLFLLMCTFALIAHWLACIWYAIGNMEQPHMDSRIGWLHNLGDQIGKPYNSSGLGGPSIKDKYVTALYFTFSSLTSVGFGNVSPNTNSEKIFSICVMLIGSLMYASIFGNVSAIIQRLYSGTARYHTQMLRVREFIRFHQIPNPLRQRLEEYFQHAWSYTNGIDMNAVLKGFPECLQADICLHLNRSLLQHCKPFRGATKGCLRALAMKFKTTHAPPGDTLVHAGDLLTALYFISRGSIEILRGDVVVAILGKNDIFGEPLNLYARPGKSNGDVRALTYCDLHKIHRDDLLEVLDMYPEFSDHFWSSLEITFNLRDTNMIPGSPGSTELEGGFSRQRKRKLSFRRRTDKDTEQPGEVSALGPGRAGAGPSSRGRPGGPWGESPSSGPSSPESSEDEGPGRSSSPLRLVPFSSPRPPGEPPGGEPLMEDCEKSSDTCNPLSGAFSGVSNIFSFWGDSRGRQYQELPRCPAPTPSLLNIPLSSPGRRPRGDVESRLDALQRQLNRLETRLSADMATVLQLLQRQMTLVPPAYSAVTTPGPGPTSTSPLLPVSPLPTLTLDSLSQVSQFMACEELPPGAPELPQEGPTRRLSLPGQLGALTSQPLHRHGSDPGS
Description: as §1, §2, §3

[7] = target: T2, serotonin 5-HT1A receptor (Homo sapiens, UniProt P08908); test: SafetyScreen44 panel; details: read-out: binding inhibition
T2 construct: purchased Eurofins Cerep P270
T2 sequence (P08908 whole entry): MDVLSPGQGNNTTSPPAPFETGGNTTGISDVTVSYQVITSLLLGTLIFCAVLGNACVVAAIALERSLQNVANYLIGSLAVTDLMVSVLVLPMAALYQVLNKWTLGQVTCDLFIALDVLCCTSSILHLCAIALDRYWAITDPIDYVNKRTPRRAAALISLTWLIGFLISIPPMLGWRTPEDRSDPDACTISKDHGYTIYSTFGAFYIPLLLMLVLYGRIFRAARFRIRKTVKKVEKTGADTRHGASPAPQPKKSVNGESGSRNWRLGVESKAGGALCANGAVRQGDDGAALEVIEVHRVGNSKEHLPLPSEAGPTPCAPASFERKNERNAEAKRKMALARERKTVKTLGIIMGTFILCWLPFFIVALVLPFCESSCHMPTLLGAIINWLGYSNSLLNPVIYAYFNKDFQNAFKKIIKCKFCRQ
Description: as §1, §2, §3

serotonin 5-HT3 receptor = serotonin 5-HT3 receptor (Homo sapiens, UniProt P46098); test: SafetyScreen44 panel; details: read-out: binding inhibition
serotonin 5-HT3 receptor, sequence (P46098 24-478): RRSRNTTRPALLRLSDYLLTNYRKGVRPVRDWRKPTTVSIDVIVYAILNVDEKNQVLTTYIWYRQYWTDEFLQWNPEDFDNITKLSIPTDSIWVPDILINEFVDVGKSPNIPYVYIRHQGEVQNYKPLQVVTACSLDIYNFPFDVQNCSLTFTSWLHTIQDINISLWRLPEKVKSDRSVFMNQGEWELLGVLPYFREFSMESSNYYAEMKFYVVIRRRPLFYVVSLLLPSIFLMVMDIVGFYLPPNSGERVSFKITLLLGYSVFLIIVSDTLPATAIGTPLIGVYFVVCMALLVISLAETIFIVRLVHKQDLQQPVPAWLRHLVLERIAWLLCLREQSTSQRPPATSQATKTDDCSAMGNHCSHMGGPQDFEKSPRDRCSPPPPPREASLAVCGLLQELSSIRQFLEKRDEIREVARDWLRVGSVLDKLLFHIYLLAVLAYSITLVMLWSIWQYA
Description: as §1, §2, §3

histamine H1 receptor, sequence (P35367 whole entry): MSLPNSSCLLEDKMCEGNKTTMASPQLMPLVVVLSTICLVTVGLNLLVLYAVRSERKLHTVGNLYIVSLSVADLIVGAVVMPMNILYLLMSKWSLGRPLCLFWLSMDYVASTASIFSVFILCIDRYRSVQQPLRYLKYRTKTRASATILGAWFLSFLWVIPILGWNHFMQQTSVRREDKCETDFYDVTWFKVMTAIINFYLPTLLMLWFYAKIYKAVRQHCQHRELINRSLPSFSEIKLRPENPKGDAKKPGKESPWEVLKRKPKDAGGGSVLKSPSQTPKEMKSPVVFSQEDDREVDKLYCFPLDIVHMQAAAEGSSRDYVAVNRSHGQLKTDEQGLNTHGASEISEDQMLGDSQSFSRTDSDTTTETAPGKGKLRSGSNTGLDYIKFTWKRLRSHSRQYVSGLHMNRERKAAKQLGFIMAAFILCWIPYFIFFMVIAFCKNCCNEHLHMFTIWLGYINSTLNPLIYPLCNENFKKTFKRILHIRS

O=C(O)COCCN1CCN(C2=Nc3ccccc3Oc3ccc(Cl)cc32)CC1 [Compound 6]
affinity for histamine H1 receptors (histamine H1 receptor): low affinity
Ki (histamine H1 receptor; mean [CI 95%]): 0.575 µM
number of head shakes (mice [1]): significantly reduced
number of scratching bouts (mice [1]): significantly reduced
tetrodotoxin-resistant Na+ currents [2]: did not affect
mechanical sensitivity (von Frey filament test) (mice [3]): Neither mechanical nor thermal sensitivity was altered
scratching induced by subcutaneous histamine (mice [4]): not affected
AP amplitude (IB4-binding DRG neurons; cells with recorded APs): Neither compound 6 nor the vehicle had a significant effect
AP duration at 90% repolarization (APD90) (IB4-binding DRG neurons; cells with recorded APs): Neither compound 6 nor the vehicle had a significant effect
resting membrane potential (RMP) (IB4-binding DRG neurons; current injection 200–950 pA): Neither compound 6 nor the vehicle significantly affected
number of AP fired (IB4-binding DRG neurons; current injection 200–950 pA, after inflammatory soup): profound decrease
rheobase compared to baseline (IB4-binding DRG neurons; in the 7 cells with recorded APs): visibly, but not significantly, increased
cells that elicited APs (IB4-binding DRG neurons; small currents (0–220 pA), vehicle 11 of 11): 7 of 13

CN1CCN(C2=Nc3ccccc3Oc3ccc(Cl)cc32)CC1 [Loxapine, reference compound]
inhibition at 10 µM (histamine H2 receptor): > 50%
inhibition at 10 µM (muscarinic M2 receptor): > 50%
inhibition at 10 µM [5]: > 50%
binding [6]: did not measurably bind
inhibition at 10 µM [7]: > 50%
inhibition at 10 µM (serotonin 5-HT3 receptor): > 50%
